Assay results: ChEMBL document CHEMBL1201862, “PubChem BioAssay data set” (2004)
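A five-concentration, 48-hour dose response in 96-well plates underlies each endpoint, interpolated linearly between surrounding concentrations. Here, GI50 denotes the concentration required for 50% inhibition of growth.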 Calls of active or inactive are those of the source. No stated cut-off is given here; in the data, active = GI50 up to about 1.1 µM and inactive = higher.

Legend:
Assay in all cases: growth of human tumour cells (NCI), 48 h
786-0 = test system: 786-0
A498 = test system: A498
A549 = test system: A549
ACHN = test system: ACHN
BT-549 = test system: BT-549
CAKI-1 = test system: CAKI-1
CCRF-CEM = test system: CCRF-CEM
COLO 205 = test system: COLO 205
DU-145 = test system: DU-145
EKVX = test system: EKVX
HCC 2998 = test system: HCC 2998
HCT-116 = test system: HCT-116
HCT-15 = test system: HCT-15
HL-60 = test system: HL-60
HOP-62 = test system: HOP-62
HT-29 = test system: HT-29
Hs-578T = test system: Hs-578T
IGROV-1 = test system: IGROV-1
K562 = test system: K562
KM12 = test system: KM12
M14 = test system: M14
MCF7 = test system: MCF7
MDA-MB-231 = test system: MDA-MB-231
MDA-N = test system: MDA-N
MOLT-4 = test system: MOLT-4
NCI-H226 = test system: NCI-H226
NCI-H23 = test system: NCI-H23
NCI-H460 = test system: NCI-H460
NCI-H522 = test system: NCI-H522
NCI/ADR-RES = test system: NCI/ADR-RES
OVCAR-3 = test system: OVCAR-3
OVCAR-4 = test system: OVCAR-4
OVCAR-5 = test system: OVCAR-5
OVCAR-8 = test system: OVCAR-8
PC-3 = test system: PC-3
SF-268 = test system: SF-268
SF-295 = test system: SF-295
SF-539 = test system: SF-539
SK-MEL-28 = test system: SK-MEL-28
SK-MEL-2 = test system: SK-MEL-2
SK-MEL-5 = test system: SK-MEL-5
SK-OV-3 = test system: SK-OV-3
SN12C = test system: SN12C
SNB-19 = test system: SNB-19
SNB-75 = test system: SNB-75
SR = test system: SR
SW-620 = test system: SW-620
T47D = test system: T47D
TK-10 = test system: TK-10
U-251 = test system: U-251
UACC-257 = test system: UACC-257
UACC-62 = test system: UACC-62
UO-31 = test system: UO-31
HOP-92 = test system: HOP-92
MDA-MB-435 = test system: MDA-MB-435
Malme-3M = test system: Malme-3M
RPMI-8226 = test system: RPMI-8226
RXF 393 = test system: RXF 393
LOX IMVI = test system: LOX IMVI

C=C(C)C(=O)N1c2ccc(OC)cc2CC1C(=O)OCC (centres undefined) was tested, and the GI50 (786-0) was > 100 µM (inactive), the GI50 (A498) was > 100 µM (inactive) and the GI50 (A549) was > 100 µM (inactive). For the same compound, the GI50 (ACHN) was > 100 µM (inactive), the GI50 (BT-549) was > 100 µM (inactive) and the GI50 (CAKI-1) was > 100 µM (inactive). For the same compound, the GI50 (CCRF-CEM) was > 100 µM (inactive), the GI50 (COLO 205) was > 100 µM (inactive) and the GI50 (DU-145) was > 100 µM (inactive). For the same compound, the GI50 (EKVX) was > 100 µM (inactive), the GI50 (HCC 2998) was > 100 µM (inactive) and the GI50 (HCT-116) was > 100 µM (inactive). For the same compound, the GI50 (HCT-15) was over 100 µM, the GI50 (HL-60) was > 10 µM (inactive) and the GI50 (HOP-62) was > 100 µM (inactive). For the same compound, the GI50 (HT-29) was > 100 µM (inactive), the GI50 (Hs-578T) was > 100 µM (inactive) and the GI50 (IGROV-1) was > 100 µM (inactive). For the same compound, the GI50 (K562) was > 100 µM (inactive), the GI50 (KM12) was > 100 µM (inactive) and the GI50 (M14) was > 100 µM (inactive). For the same compound, the GI50 (MCF7) was > 100 µM (inactive), the GI50 (MDA-MB-231) was > 100 µM (inactive) and the GI50 (MDA-N) was > 100 µM (inactive). The GI50 (MOLT-4) was > 100 µM (inactive), the GI50 (NCI-H226) was > 100 µM (inactive) and the GI50 (NCI-H23) was > 100 µM (inactive). The GI50 (NCI-H460) was > 100 µM (inactive), the GI50 (NCI-H522) was > 100 µM (inactive) and the GI50 (NCI/ADR-RES) was > 100 µM (inactive). For the same compound, the GI50 (OVCAR-3) was > 100 µM (inactive), the GI50 (OVCAR-4) was > 100 µM (inactive) and the GI50 (OVCAR-5) was > 100 µM (inactive). For the same compound, the GI50 (OVCAR-8) was > 100 µM (inactive), the GI50 (PC-3) was > 100 µM (inactive) and the GI50 (SF-268) was > 100 µM (inactive). For the same compound, the GI50 (SF-295) was > 100 µM (inactive), the GI50 (SF-539) was > 100 µM (inactive) and the GI50 (SK-MEL-28) was > 100 µM (inactive). The GI50 (SK-MEL-2) was > 100 µM (inactive), the GI50 (SK-MEL-5) was > 100 µM (inactive) and the GI50 (SK-OV-3) was > 100 µM (inactive). The GI50 (SN12C) was > 100 µM (inactive), the GI50 (SNB-19) was > 100 µM (inactive) and the GI50 (SNB-75) was 45.2 µM (inactive). The GI50 (SR) was > 100 µM (inactive), the GI50 (SW-620) was > 100 µM (inactive) and the GI50 (T47D) was 26.7 µM (inactive). The GI50 (TK-10) was > 100 µM (inactive), the GI50 (U-251) was > 100 µM (inactive) and the GI50 (UACC-257) was > 100 µM (inactive). The GI50 (UACC-62) was > 100 µM (inactive) and the GI50 (UO-31) was > 100 µM (inactive).
With C/C(N)=C/C(=O)c1[nH]c(C(=O)O)cc1C1CCN(Cc2ccccc2)C1=O (centres undefined) the GI50 (786-0) was 26.7 µM (inactive), the GI50 (A498) was 65.3 µM (inactive) and the GI50 (A549) was 34.4 µM (inactive). The GI50 (ACHN) was 30 µM (inactive), the GI50 (BT-549) was 31.8 µM (inactive) and the GI50 (CAKI-1) was 40.8 µM (inactive). For the same compound, the GI50 (COLO 205) was 23.9 µM (inactive), the GI50 (DU-145) was 22.1 µM (inactive) and the GI50 (EKVX) was 30.1 µM (inactive). The GI50 (HCC 2998) was 52.7 µM (inactive), the GI50 (HCT-116) was 22.2 µM (inactive) and the GI50 (HCT-15) was 29.9 µM. For the same compound, the GI50 (HOP-62) was 18.4 µM (inactive), the GI50 (HOP-92) was 17 µM (inactive) and the GI50 (HT-29) was 31.8 µM (inactive). The GI50 (Hs-578T) was 27.9 µM (inactive), the GI50 (IGROV-1) was 27.2 µM (inactive) and the GI50 (K562) was 20.8 µM (inactive). For the same compound, the GI50 (KM12) was 31.9 µM (inactive), the GI50 (M14) was 18.8 µM (inactive) and the GI50 (MCF7) was 24.2 µM (inactive). The GI50 (MDA-MB-231) was 41.1 µM (inactive), the GI50 (MDA-MB-435) was 40.6 µM (inactive) and the GI50 (MDA-N) was 23.7 µM (inactive). For the same compound, the GI50 (MOLT-4) was 24.4 µM (inactive), the GI50 (Malme-3M) was 18.8 µM (inactive) and the GI50 (NCI-H23) was 22.8 µM (inactive). For the same compound, the GI50 (NCI-H460) was 29.4 µM (inactive), the GI50 (NCI-H522) was 20.6 µM (inactive) and the GI50 (NCI/ADR-RES) was 19.9 µM (inactive). The GI50 (OVCAR-3) was 20.6 µM (inactive), the GI50 (OVCAR-4) was 47.8 µM (inactive) and the GI50 (OVCAR-5) was 30.2 µM (inactive). The GI50 (OVCAR-8) was 21.8 µM (inactive), the GI50 (PC-3) was 37.6 µM (inactive) and the GI50 (RPMI-8226) was 19.6 µM (inactive). For the same compound, the GI50 (RXF 393) was 18.5 µM (inactive), the GI50 (SF-268) was 22.3 µM (inactive) and the GI50 (SF-295) was 21.3 µM (inactive). The GI50 (SK-MEL-28) was 24.3 µM (inactive), the GI50 (SK-MEL-2) was 28.9 µM (inactive) and the GI50 (SK-MEL-5) was 15.3 µM (inactive). The GI50 (SK-OV-3) was 28.6 µM (inactive), the GI50 (SNB-19) was 33.4 µM (inactive) and the GI50 (SNB-75) was 23.1 µM (inactive). For the same compound, the GI50 (SW-620) was 46.1 µM (inactive), the GI50 (T47D) was 22.8 µM (inactive) and the GI50 (TK-10) was 38.5 µM (inactive). For the same compound, the GI50 (U-251) was 39.6 µM (inactive), the GI50 (UACC-257) was 28.6 µM (inactive) and the GI50 (UACC-62) was 22.3 µM (inactive). For the same compound, the GI50 (UO-31) was 23.2 µM (inactive).
C[Si](C)(OCCS(=O)(=O)O)C1(Cc2cccc3ccccc23)S(=O)(=O)OCCOS1(=O)=O was tested, and the GI50 (A498) was 15.9 µM (inactive), the GI50 (A549) was 23 µM (inactive) and the GI50 (ACHN) was 18.1 µM (inactive). For the same compound, the GI50 (BT-549) was 18.5 µM (inactive), the GI50 (CAKI-1) was 17.5 µM (inactive) and the GI50 (CCRF-CEM) was 18.3 µM (inactive). The GI50 (COLO 205) was 12.3 µM (inactive), the GI50 (DU-145) was 19.6 µM (inactive) and the GI50 (EKVX) was 17.7 µM (inactive). For the same compound, the GI50 (HCC 2998) was 16.5 µM (inactive), the GI50 (HCT-116) was 18.5 µM (inactive) and the GI50 (HCT-15) was 19.6 µM. The GI50 (HL-60) was 8.26 µM (inactive), the GI50 (HOP-62) was 19.6 µM (inactive) and the GI50 (HOP-92) was 11.2 µM (inactive). The GI50 (Hs-578T) was 33.2 µM (inactive), the GI50 (IGROV-1) was 16.9 µM (inactive) and the GI50 (K562) was 26.4 µM (inactive). For the same compound, the GI50 (KM12) was 14.4 µM (inactive), the GI50 (LOX IMVI) was 16.2 µM (inactive) and the GI50 (M14) was 17.7 µM (inactive). The GI50 (MCF7) was 19.4 µM (inactive), the GI50 (MDA-MB-231) was 18.1 µM (inactive) and the GI50 (MDA-MB-435) was 18.6 µM (inactive). For the same compound, the GI50 (MDA-N) was 17.8 µM (inactive), the GI50 (MOLT-4) was 34.9 µM (inactive) and the GI50 (NCI-H226) was 19.5 µM (inactive). For the same compound, the GI50 (NCI-H23) was 27.8 µM (inactive), the GI50 (NCI-H460) was 21.1 µM (inactive) and the GI50 (NCI-H522) was 13.7 µM (inactive). The GI50 (NCI/ADR-RES) was 33.7 µM (inactive), the GI50 (OVCAR-3) was 12.6 µM (inactive) and the GI50 (OVCAR-4) was 20.7 µM (inactive). The GI50 (OVCAR-5) was 18.7 µM (inactive), the GI50 (OVCAR-8) was 19.5 µM (inactive) and the GI50 (PC-3) was 19 µM (inactive). The GI50 (RPMI-8226) was 18.4 µM (inactive), the GI50 (SF-268) was 23.2 µM (inactive) and the GI50 (SF-295) was 20.2 µM (inactive). The GI50 (SF-539) was 18.6 µM (inactive), the GI50 (SK-MEL-28) was 17.1 µM (inactive) and the GI50 (SK-MEL-2) was 18.9 µM (inactive). For the same compound, the GI50 (SK-MEL-5) was 17.3 µM (inactive), the GI50 (SK-OV-3) was 15.6 µM (inactive) and the GI50 (SN12C) was 18.2 µM (inactive). For the same compound, the GI50 (SNB-19) was 19.1 µM (inactive), the GI50 (SNB-75) was 15.5 µM (inactive) and the GI50 (SW-620) was 16.3 µM (inactive). For the same compound, the GI50 (T47D) was 17.1 µM (inactive), the GI50 (TK-10) was 20.9 µM (inactive) and the GI50 (U-251) was 20.3 µM (inactive). For the same compound, the GI50 (UACC-257) was 28.1 µM (inactive), the GI50 (UACC-62) was 17.9 µM (inactive) and the GI50 (UO-31) was 17.9 µM (inactive).
